Entries after “also recorded” stand apart in the source; their conditions may differ.
Legend:
[1] = system: 518A2 (melanoma); assay: SRB cytotoxicity assay, 518A2; type: cell-based, human; settings: for EC50: Homo sapiens, SRB assay, 96 h of treatment, 518A2; for Selectivity index (SI) 518A2: SI = EC50 (NIH 3T3)/EC50 (518A2)
How it was run: (§1)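 Cells in RPMI 1640 with 10% FBS were exposed for 96 h to at least six compound concentrations (1–30 µM), then TCA-fixed, stained with SRB and read at 570 nm. EC50 values came from 4-parameter Hill fits (top 100, bottom 0), averaged over three independent triplicate experiments.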

[2] = system: A2780 (ovarian carcinoma); assay: SRB cytotoxicity assay, A2780; type: cell-based, human; settings: for factor by which activity is reduced compared to doxorubicin hydrochloride (DRC): A2780 tumor cells, EC50 versus DRC; for EC50: Homo sapiens, SRB assay, 96 h of treatment, A2780; for Selectivity index (SI) A2780: SI = EC50 (NIH 3T3)/EC50 (A2780)
How it was run: as §1

[3] = system: HT29 (colon adenocarcinoma); assay: SRB cytotoxicity assay, HT29; type: cell-based, human; settings: for EC50: Homo sapiens, HT-29, SRB assay, 96 h of treatment, HT29; for Selectivity index (SI) HT29: SI = EC50 (NIH 3T3)/EC50 (HT29)
How it was run: as §1

[4] = system: MCF-7 (breast adenocarcinoma); assay: SRB cytotoxicity assay, MCF-7; type: cell-based, human; settings: for EC50: Homo sapiens, MCF7, SRB assay, 96 h of treatment, MCF-7; for Selectivity index (SI) MCF-7: SI = EC50 (NIH 3T3)/EC50 (MCF-7)
How it was run: as §1

[5] = system: 8505C (thyroid carcinoma); assay: SRB cytotoxicity assay, 8505C; type: cell-based, human; settings: for EC50: Homo sapiens, SRB assay, 96 h of treatment, 8505C; for Selectivity index (SI) 8505C: SI = EC50 (NIH 3T3)/EC50 (8505C)
How it was run: as §1

[6] = system: non-malignant mouse fibroblasts NIH 3T3; assay: SRB cytotoxicity assay, NIH 3T3; type: cell-based; settings: NIH3T3, 96 h of treatment
How it was run: as §1

[7] = system: several human tumor cell lines; assay: SRB cytotoxicity assay, cell line panel (summary statements); type: cell-based; settings: for EC50: Homo sapiens, summary over the cell lines tested; for SI factors (over the cancerous cell lines): SI = EC50 (NIH 3T3)/EC50 (tumor cell line), summary
Procedure: The cytotoxicity of ursolic and betulinic carboxamides 3–30 was determined in sulforhodamine B (SRB) assays.
The cell lines used were human cancer cell lines: 518A2 (melanoma), A2780 (ovarian carcinoma), HT29 (colon adenocarcinoma), MCF-7 (breast adenocarcinoma), 8505C (thyroid carcinoma) and non-malignant mouse fibroblasts NIH 3T3. Cultures were maintained as monolayers in RPMI 1640 medium with L-glutamine (Capricorn Scientific GmbH, Ebsdorfergrund, Germany) supplemented with 10% heat inactivated fetal bovineserum (Sigma-Aldrich Chemie GmbH, Steinheim, Germany) and penicillin/streptomycin (Capricorn Scientific GmbH, Ebsdorfergrund, Germany) at 37 °C in a humidified atmosphere with 5% CO2.
The cytotoxicity of the compounds was evaluated using the sulforhodamine-B (Kiton-Red S, ABCR) micro culture colorimetric assay. Cells were seeded into 96-well plates on day 0 at appropriate cell densities to prevent confluence of the cells during the period of experiment. After 24 h, the cells were treated with 6 different concentrations (1, 3, 7, 12, 20 and 30 µM) minimum. The final concentration of DMSO/DMF never exceeded 0.5%, which was non-toxic to the cells. After a 96 h treatment, the supernatant medium from the 96-well plates was discarded, the cells were fixed with 10% trichloroacetic acid (TCA) and allowed to rest at 4 °C. After 24 h fixation, the cells were washed in a strip washer and dyed with SRB solution (100 µL, 0.4% in 1% acetic acid) for about 20 min. After dying, the plates were washed four times with 1% acetic acid to remove the excess of the dye and allowed to air-dry overnight. Tris base solution (200 µL, 10 mM) was added to each well and absorbance was measured at λ = 570 nm using a 96-well plate reader (Tecan Spectra, Crailsheim, Germany). The EC50 values were averaged from three independent experiments performed each in triplicate calculated from semi logarithmic dose response curves applying a non-linear 4P Hills-slope equation (GraphPad Prism5; variables top and bottom were set to 100 and 0, respectively).

[8] = system: MCF-7 cells; assay: AO/PI dye exclusion test, MCF-7; type: cell-based, human; settings: 24 h
Procedure: (§2) Extended biological investigations were performed for compounds 25 and 26 using dye exclusion acridine orange (AO)/propidium iodide (PI) assays by treating MCF-7 or A2780 tumor cells with 25 and 26, respectively for 24 h (Figure 3). […] For both compounds, membrane blebbing of some cells could also be observed. These observations can be regarded as indications of apoptosis.
(§3) Morphological characteristics of cell death were analyzed employing an AO/PI assay using human cancer cell lines A2780 and MCF-7. Approximately 8 × 10^5 cells were seeded in cell culture flasks (25 cm^2), and the cells were allowed to grow for 24 h. After removing the used medium, fresh medium was reloaded (or a blank new medium was used as a control). After 24 h, the content of the flask was collected and centrifuged (1200 rpm, 4 °C), and the pellet was gently suspended in phosphate-buffered saline (PBS (w/w), 1 mL) and centrifuged again. The PBS was removed, and the pellet gently suspended in PBS (50 µL) again. The analysis of the cells was performed using a fluorescence microscope after having mixed the cell suspension (10 µL) with a solution of AO/PI (1 µg/mL, 10 µL).

[9] = system: A2780 cells; assay: AO/PI dye exclusion test, A2780; type: cell-based, human; settings: 1 µM, 24 h
Procedure: as §2, §3

Structure (SMILES) | EC50 [1] | Selectivity index (SI) 518A2 [1] | factor by which activity is reduced compared to doxorubicin hydrochloride (DRC) [2] | EC50 [2] | Selectivity index (SI) A2780 [2] | EC50 [3] | Selectivity index (SI) HT29 [3] | EC50 [4] | Selectivity index (SI) MCF-7 [4] | EC50 [5] | Selectivity index (SI) 8505C [5] | EC50 [6] | EC50 [7] | SI factors (over the cancerous cell lines) [7] | AO/PI fluorescence microscopy, cell morphology ([8]; 0.75 µM) | AO/PI fluorescence microscopy, cell morphology [9] | AO/PI fluorescence microscopy, cell morphology ([8]; 1 µM)
C=C(C)C1CC[C@]2(C(=O)NCCN3CCCC3)CC[C@]3(C)C(CCC4[C@@]5(C)CC[C@H](O)C(C)(C)C5CC[C@]43C)C12 (stereo partly drawn) [Compound 26, (3β)-N-(2-Pyrrolidin-1-ylethyl)-3-hydroxy-lup-20(29)-en-28-amide] | 400 ± 60 nM | 1.00 | 30 | 300 ± 100 nM | 1.33 | 400 ± 20 nM | 1.00 | 200 ± 50 nM | 2.00 | 500 ± 60 nM | 0.80 | 400 ± 20 nM | < 1000 nM | ~1 | intact cell membranes (green staining); also recorded: protrusions in the plasma membrane (blebbing) of some cells | both green colored cells as well as late-stage apoptotic cells | 
C=C(C)C1CC[C@]2(C(=O)NCCN(C)C)CC[C@]3(C)C(CCC4[C@@]5(C)CC[C@H](O)C(C)(C)C5CC[C@]43C)C12 (stereo partly drawn) [Compound 25, (3β)-N-[2-(Dimethylamino)ethyl]-3-hydroxy-lup-20(29)-en-28-amide] | 300 ± 160 nM | 1.00 | 20 | 200 ± 10 nM | 1.50 | 300 ± 50 nM | 1.00 | 300 ± 70 nM | 1.00 | 400 ± 40 nM | 0.75 | 300 ± 90 nM | < 1000 nM | ~1 |  | both green colored cells as well as late-stage apoptotic cells | both apoptotic (membrane blebbing, marked by white arrows in Figure 3) and necrotic cells (red staining)
